Assay results: DBAASP
≈ marks a conversion by molar mass, not a printed value. Where “and” joins values, the source holds several entries; their conditions need not be identical. Equal entries are not always repeated. Values belong to the compound of their own block, whether it stands above or below them.

Legend:
Experiment in all cases: ≥ marks a high value that may be exact or a test limit, other limits are often not marked, values filed in µg/mL are converted to µM
[1] = tested on: Bacillus subtilis CGMCC 1.2428
[2] = tested on: Bacillus megaterium CGMCC 1.0459
Saccharomyces cerevisiae = tested on: Saccharomyces cerevisiae
Beauveria sp. = tested on: Beauveria sp.
[3] = tested on: Micrococcus luteus CGMCC 1.0290
Bacillus sp. DM-1 = tested on: Bacillus sp. DM-1
[4] = tested on: Saccharomyces cerevisiae FY1679
[5] = tested on: Penicillium digitatum PHI-26
Candida albicans = tested on: Candida albicans
[6] = tested on: Escherichia coli DH5alpha
[7] = tested on: Staphylococcus epidermidis NBRC 12933
[8] = tested on: Bacillus subtilis NBRC 3513
[9] = tested on: Staphylococcus aureus NBRC 12732
[10] = tested on: Bacillus megaterium ATCC 19213
[11] = tested on: Salmonella typhimurium KCTC 1926
[12] = tested on: Pseudomonas aeruginosa KCTC 1637
[13] = tested on: Staphylococcus aureus KCTC 1621
[14] = tested on: Escherichia coli KCTC 1682
[15] = tested on: Staphylococcus epidermidis KCTC 1917
[16] = tested on: Bacillus subtilis KCTC 3068
[17] = tested on: Candida albicans KCTC 7965
[18] = tested on: Staphylococcus epidermidis KCTC 3096
[19] = tested on: Saccharomyces cerevisiae KCTC 7296
[20] = tested on: Trichosporon beigelii KCTC 7707
[21] = tested on: Bacillus subtilis KCTC 1918
[22] = tested on: Candida albicans TIMM 1768
[23] = tested on: Micrococcus luteus ATCC 10240
Escherichia coli BL21AI = tested on: Escherichia coli BL21AI

MIC [1]: 10.8 µM (≈ 13.3 µg/mL)
MIC [2]: 8.93 µM (≈ 11.1 µg/mL)
MIC (Saccharomyces cerevisiae): ≥ 52 µM
MIC (Beauveria sp.): 17.7 µM (≈ 21.9 µg/mL)
MIC [3]: 26 µM (≈ 32.2 µg/mL)
MIC (Bacillus sp. DM-1): ≥ 33.8 µM
SMILES: CC(C)[C@H](NC(=O)[C@H](CS)NC(=O)[C@H](CC(=O)O)NC(=O)CNC(=O)[C@H](CC(N)=O)NC(=O)[C@H](CCCCN)NC(=O)[C@H](CS)NC(=O)[C@H](CCCCN)NC(=O)CNC(=O)CN)C(=O)N[C@@H](CS)C(=O)N[C@@H](CCCN=C(N)N)C(N)=O [GGKCKNGDCVCR]

MIC [4]: ≥ 32 µM
MIC [5]: 4 µM and 6 µM
MIC (Candida albicans): 132 µM (≈ 130 µg/mL)
MIC [6]: ≥ 32 µM
SMILES: CC(=O)N[C@@H](CCCN=C(N)N)C(=O)N[C@@H](CCCCN)C(=O)N[C@@H](CCCCN)C(=O)N[C@@H](Cc1c[nH]c2ccccc12)C(=O)N[C@@H](Cc1ccccc1)C(=O)N[C@@H](Cc1c[nH]c2ccccc12)C(N)=O [RKKWFW]

MIC [7]: ≥ 128 µM
MIC [8]: ≥ 128 µM
MIC [9]: ≥ 128 µM
MIC [10]: ≥ 64 µM
SMILES: CC(C)C[C@H](NC(=O)[C@H](CCCCN)NC(=O)[C@H](CC(C)C)NC(=O)[C@H](CC(C)C)NC(=O)[C@H](Cc1c[nH]c2ccccc12)NC(=O)[C@@H](N)CCCN=C(N)N)C(=O)NCC(=O)N[C@@H](Cc1cnc[nH]1)C(=O)N[C@@H](Cc1cnc[nH]1)C(=O)NCC(=O)N[C@@H](CCCN=C(N)N)C(=O)N[C@@H](C)C(=O)N1CCC[C@H]1C(=O)N1CCC[C@H]1C(=O)O [RWLLKLGHHGRAPP]

MIC [11]: 4 µM (≈ 9.05 µg/mL)
MIC [12]: 8 µM (≈ 18.1 µg/mL)
MIC [13]: 8 µM (≈ 18.1 µg/mL)
MIC [14]: 8 µM (≈ 18.1 µg/mL)
MIC [15]: 8 µM (≈ 18.1 µg/mL)
MIC [16]: 4 µM (≈ 9.05 µg/mL)
MIC [17]: 11.3 µM (≈ 25.6 µg/mL)
SMILES: CC(C)C[C@H](NC(=O)[C@H](CC(C)C)NC(=O)[C@H](CCCCN)NC(=O)[C@H](CCCCN)NC(=O)[C@H](CC(C)C)NC(=O)[C@H](CC(C)C)NC(=O)[C@H](CCCCN)NC(=O)[C@H](CC(C)C)NC(=O)[C@H](Cc1c[nH]c2ccccc12)NC(=O)[C@H](CCCCN)NC(=O)[C@H](CCCCN)NC(=O)[C@H](CC(C)C)NC(=O)[C@H](CC(C)C)NC(=O)[C@H](CCCCN)NC(=O)[C@H](CCCCN)NC(=O)[C@H](CC(C)C)NC(=O)[C@@H](N)CCCCN)C(=O)N[C@@H](CCCCN)C(N)=O [KLKKLLKKWLKLLKKLLK]

MIC [11]: 0.4 µM (≈ 0.528 µg/mL)
MIC [18]: 6.3 µM (≈ 8.32 µg/mL)
MIC [19]: 12.5 µM (≈ 16.5 µg/mL)
MIC [12]: 3.1 µM (≈ 4.09 µg/mL)
MIC [20]: 6.3 µM (≈ 8.32 µg/mL)
MIC [21]: 6.3 µM (≈ 8.32 µg/mL)
MIC [22]: 25 µM (≈ 33 µg/mL)
SMILES: CC(C)C[C@H](NC(=O)[C@H](CCCCN)NC(=O)[C@H](CCCCN)NC(=O)[C@H](CC(C)C)NC(=O)[C@H](CC(C)C)NC(=O)[C@H](CCCCN)NC(=O)[C@H](CCCCN)NC(=O)[C@H](CC(C)C)NC(=O)[C@H](CC(C)C)NC(=O)[C@@H]1CCCN1C(=O)[C@@H](N)CCCCN)C(N)=O [KPLLKKLLKKL]

MIC [23]: 0.455 µM (≈ 0.999 µg/mL)
MIC (Escherichia coli BL21AI): 29.1 µM (≈ 64 µg/mL)
SMILES: CC[C@H](C)[C@H](NC(=O)[C@@H]1CCCN1C(=O)[C@H](CCCN=C(N)N)NC(=O)[C@@H]1CCCN1C(=O)[C@H](Cc1cnc[nH]1)NC(=O)[C@H](CO)NC(=O)[C@@H](NC(=O)[C@@H]1CCCN1C(=O)[C@H](CCCN=C(N)N)NC(=O)[C@@H]1CCCN1C(=O)[C@H](CO)NC(=O)[C@H](Cc1ccc(O)cc1)NC(=O)[C@@H]1CCCN1C(=O)[C@H](CCCN=C(N)N)NC(=O)[C@@H]1CCCN1C(=O)[C@H](CCCCN)NC(=O)CN)[C@@H](C)O)C(=O)N[C@@H](CCCN=C(N)N)C(=O)N[C@H](C(N)=O)C(C)C [GKPRPYSPRPTSHPRPIRV]
